The test concerns the target Thermotoga maritima mPPase (TmPPase) (Thermotoga maritima, UniProt Q9S5X0). Briefly: TmPPase inhibition assay (96-well plate, orthophosphate determination). The test is classed as biochemical. As to conditions: computed using the pIC50 and the Heavy Atom Count (LEHA) normalization method, Discovery Studio. The protocol: The inhibition assay was measured in 96 well plate assay as previously reported.5,6 Briefly, 1 µL of purified TmPPase (13 mg/mL) was reactivated in 99 µL of reactivation buffer (20 mM 2-(N-morpholino) ethanesulfonic acid (MES) pH 6.5, 3.5% (v/v) glycerol, 2 mM dithiothreitol (DTT), 4.5% dodecyl maltoside (DDM) and 12 mg/mL L-α-phosphatidylcholine from soybean) and incubated at 55 °C for 15 min. For the assay, to each tube strips, 0.2 µL of the reactivated enzyme was added to 14.8 µL of reaction buffer (200 mM Tris-Cl pH 8.0, 8.0 mM MgCl2, 333 mM KCl, and 67 mM NaCl) and 25 µL of inhibitor. The reaction mixtures were sealed with an adhesive sealing sheet (Thermo Scientific) and incubated at 71 °C for 5 min. The reactions were started with the addition of 10 µL of 2 mM sodium pyrophosphate, further incubation at 71 °C for 5 min and stopped by placing the reaction mixtures on ice for 10 min. The color development was done with the addition of ammonium heptamolybdate + ascorbic acid solution on ice for 10 min and then 90 µL of arsenic solution, at room temperature, for a minimum of 30 min. 180 µL of each reaction mixtures was then transferred into a clear 96 well polystyrene microplate and the absorbance was measured at 860 nm using a microplate spectrophotometer (MultiSkan Go, Thermo Scientific). The pilot inhibitor screening of 16 phosphate-mimicking fragments was done at 100 μM inhibitor concentration. Further screening was done with three different concentrations; 1 μM, 5 μM and 50 μM for soluble compounds, and 1 μM, 5 μM, and 20 μM for sparingly soluble compounds.6 The best hits were validated using 8 concentrations in triplicate in TmPPase.
The potent hits 12k and 12l compounds were then tested on the P. falciparum (PfPPase-VP1) membrane fractions expressed in baculovirus-infected insect cells (the expression method and further enzyme analysis will be described in more detail elsewhere). Briefly, to each tube strips, 2.4 µL of PfPPase-VP1 membrane fraction (5 mg/mL) was added into 12.6 µL of reaction buffer (200 mM Tris-Cl pH 8.0, 8.0 mM MgCl2, 333 mM KCl, 67 mM NaCl, 3.3 mM NaF, and 17 μM Gramicidin D) and 25 µL of inhibitor. The reaction mixtures were incubated at 30 °C for 5 min and the assay was started by the addition of 10 µL of 2 mM sodium pyrophosphate and further incubation at 30 °C for 10 min. The reaction termination and color development were done as before.
The in vitro anti-plasmodial activity assay strain 3D7 was maintained in culture as described previously.7 Briefly, parasites were cultured in O+ human erythrocytes at 5% haematocrit in RPMI - 1640 medium supplemented with 0.5% Albumax II (Gibco, Carlsbad, CA, USA), 200 μM hypoxanthine (Sigma, St. Louis, MO, USA) and 20 μg/mL gentamycin (Gibco). Parasites were synchronized with the sorbitol method as described. 8 Test compound was dissolved in DMSO to make a stock solution of 10 mM. Two -fold serial dilutions of the test compound were made in the culture medium to cover the range of 400 µM – 400 nM. Fifty microliters of each dilution were mixed in 96 well plate with 150 µL of 2% haematocrit of 0.5% parasitemia (ring stage). DMSO concentration in the highest compound concentration w as 0.1%. After 72 h incubation at 37 °C, the parasite growth was quantified using fluorescent SYBR Green I ® -based assay as described. 9 The half-maximal inhibitory concentration (IC 50) of the test compound was assessed using the non-linear regression fit model in Prism 7 (GraphPad Software). The potent anti-malarial drug, artemisinin, was use in parallel as a positive control. Each concentration of the test compound was tested in duplicate and the assay was repeated three times. The mean and standard deviation of the three repeats were used to estimate the IC50.
IC50 determinations were done using R 3.6.110 and the n-parameter logistic regression (nplr) package11 version 0.1-7. In this package, the weighted nplr, given x (compound concentrations) and […]

Thermotoga maritima mPPase (TmPPase), sequence (Q9S5X0 whole entry): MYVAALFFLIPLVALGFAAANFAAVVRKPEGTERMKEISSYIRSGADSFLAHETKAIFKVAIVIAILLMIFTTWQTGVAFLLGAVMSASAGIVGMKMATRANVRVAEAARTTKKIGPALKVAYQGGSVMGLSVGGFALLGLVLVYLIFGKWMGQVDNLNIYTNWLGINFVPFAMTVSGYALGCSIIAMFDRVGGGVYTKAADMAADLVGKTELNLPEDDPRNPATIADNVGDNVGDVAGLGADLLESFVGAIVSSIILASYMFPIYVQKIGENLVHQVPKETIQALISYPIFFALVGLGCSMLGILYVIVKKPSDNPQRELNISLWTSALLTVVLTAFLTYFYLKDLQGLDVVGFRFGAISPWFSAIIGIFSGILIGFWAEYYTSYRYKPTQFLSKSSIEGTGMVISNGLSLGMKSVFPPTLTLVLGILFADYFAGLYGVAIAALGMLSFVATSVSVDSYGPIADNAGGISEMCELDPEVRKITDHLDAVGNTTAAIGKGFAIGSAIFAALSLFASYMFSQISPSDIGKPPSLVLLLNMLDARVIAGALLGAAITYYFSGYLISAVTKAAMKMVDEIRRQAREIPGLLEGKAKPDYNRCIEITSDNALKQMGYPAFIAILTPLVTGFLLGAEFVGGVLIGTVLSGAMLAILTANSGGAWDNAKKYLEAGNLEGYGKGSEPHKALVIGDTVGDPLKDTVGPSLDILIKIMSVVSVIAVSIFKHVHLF

`CC(C)(C)c1cc(-c2cc(C(=O)Oc3ccccc3Br)no2)cc(C(C)(C)C)c1` [Compound 12l]: the “LE (ligand efficiency)” value came to 0.17.
